Patent US11612634B2 (priority 2020, dated 2023)

Assays:
[1] = system: Carr-induced inflammatory pain rat model; assay: Analgesic effect on mechanical hyperalgesia (PWT) in Carr-induced inflammatory pain rat model; type: in vivo; settings: 2 μg/kg i.d. plantar, every 2 h, six injections
Description: The mechanical hyperalgesia of rats was measured by 38500-pressure application measurement (PAM) system (Ugo Basile Biological Research Apparatus, Comerio-Varese, Italy), which consisted of a hand-held part and an integrated electronic part. The hand-held part was a force sensor which was designed according to a Randall-Selitto algesimeter. The integrated electronic part was configured to automatically record a maximum PWT applied to the left hind paw of the rats.
The Carr-induced inflammatory pain model was built according to a published method (Alessandri-Haber N, et al. Neurosci. Vol 29(19), pp. 6217-6288, 2009) for evaluating an analgesic effect of drugs administered by intraplantar injection. […] Those rats with a PWT lower than 100 gf were considered to be a desired Carr-induced inflammatory pain model, those rats with the PWT higher than 100 gf was removed.
(S1) A total of 18 healthy adult SD rats, weighing 180-220 g, were selected, numbered on tails and placed in the same cage.
(S2) The rats were maintained in a measuring room for 2 h for adaptation.
The measurement was repeated 3-5 times for each rat with an interval of 5-10 min. The results of multiple PWT measurements were averaged as the Baseline (BL) (unit: g). After that, 6 μL of 1 wt % Carr was intradermally injected into the plantar surface of the hind paw to build an inflammatory pain rat model.
(S4) The PWT of the left hind paw of each rat was measured 1 h after the Carr injection. Rats with a higher inflammatory threshold and rats with a lower inflammatory threshold were mixed and equally divided into three groups (group A, group B and group C), each for six rats, such that any two groups of rats had similar distribution of inflammatory threshold. The groups A, B and C were intradermally injected with normal saline, 5 mg/kg of morphine and 2 μg/kg of the short peptide P10581, respectively, at the plantar surface of the left hind paw. 1 h later, the PWT of the left hind paw of the rats in each group was measured 3-5 times at an interval of 5-10 min. The multiple PWT measurement results were averaged as the practical PWT (unit: g). Then the drug was injected every 2 h according to the above-mentioned administration dose and time, and the corresponding PWT was recorded (six injections in total).
(§1) (1) 24 healthy adult SD rats, weighing 180-220 g, were selected, reinjected with 6 μL of a 1 wt % Carr solution and divided into 4 groups randomly and averagely (i.e., groups A-D). The group A was injected with normal saline; the group B was intradermally injected with 0.1 μg/kg of the short peptide P10581 through the plantar surface of the left hind paw; the group C was intradermally injected with 0.1 μg/kg of the short peptide P10581 and then with 5 mg/kg of morphine 30 min later through the plantar surface of the left hind paw; and the group D was intradermally injected with 0.05 μg/kg of the short peptide P10581, and then with 5 mg/kg of morphine 30 min later through the plantar surface of the left hind paw. 1 h later, the PWT of each group was recorded when the mechanical withdrawal of the left hind paw occurred, and each rat was measured 3-5 times at an interval of 5-10 min.
(§2) (2) The drug was injected every 2 h according to the above-mentioned administration dose and time (seven times in total), and the PWT was recorded.
(S1) A total of 20 healthy adult SD rats (half male and half female), weighing 180-220 g, were selected, numbered on tails and transferred to the same cage.
(S4) The PWT of the left hind paw of each rat was measured 1 h after the Carr injection.

[2] = system: morphine analgesic tolerance, inflammatory pain rat model; assay: Effect on morphine analgesic tolerance in Carr-induced inflammatory pain rat model; type: in vivo; settings: for effect of cysteine-mutated peptide on morphine analgesic tolerance: Carr model, with morphine, dose not given
Description: The Carr-induced inflammatory pain model was built according to a published method (Alessandri-Haber N, et al. Neurosci. Vol 29(19), pp. 6217-6288, 2009) for evaluating an analgesic effect of drugs administered by intraplantar injection. Specifically, 6 μL of 1 wt % Carr solution was injected into the rats between the 2nd and 3rd toes of a left hind paw to induce hyperalgesia, which was manifested as plantar swelling and a declined pain threshold of the rats within 1 hour after the injection. Those rats with a PWT lower than 100 gf were considered to be a desired Carr-induced inflammatory pain model, those rats with the PWT higher than 100 gf was removed.
as §1, §2
(S1) By means of molecular biological techniques, two cysteine residues (Cys10 and Cys11) in the short peptide P10581 were replaced with alanine (Ala), and the resulting peptide was named P10581-1 (SEQ ID NO: 2).
(S2) Three cysteine residues (Cys10, Cys11 and Cys17) in the short peptide P10581 were replaced with alanine (Ala), and the resulting peptide was named P10581-2 (SEQ ID NO: 3).
The rat was injected with 6 μL of 1 wt % Carr to establish a Carr-induced inflammatory pain model, and the effect of the short peptides P10581, P10581-1 and P10581-2 on the morphine analgesic tolerance was analyzed according to Experimental Example 1. […]

Row | Sequence | analgesic effect on Carr-induced inflammatory pain threshold (PWT) [1] | analgesic tolerance after repeated injection [1] | effect on morphine analgesic tolerance ([2]; 0.1 μg/kg peptide i.d. 30 min before 5 mg/kg morphine, every 2 h) | effect of cysteine-mutated peptide on morphine analgesic tolerance [2] | decrease in the analgesic effect compared to P10581 ([2]; after 8 injections, with morphine (FIG. 5C)) [%]
1 | WKCNPNDDKCR [P10583, comparative short peptide, reference compound] | completely reverse the Carr-induced inflammatory pain threshold | without developing the analgesic tolerance | no relieving effect | – | –
2 | WKCNPNDDKAARPKLKC [P10581-1, P10581 with Cys10 and Cys11 replaced with alanine] | – | – | – | merely partially relieve the morphine analgesic tolerance | 57.6
3 | WKCNPNDDKAARPKLKA [P10581-2, P10581 with Cys10, Cys11 and Cys17 replaced with alanine] | – | – | – | no relieving effect on the morphine analgesic tolerance | –
